Source: patent publication US11993785B2, “Immersion deposition methods and compositions for use in the same” (Wake Forest University Health Sciences, priority 2018, dated 2024)

Test system: primary sarcoma organoids
Experiment: CELLTITER-GLO 3D ATP assay of drug treated primary sarcoma organoids
Assay type: cell-based
Details: 3 days, after 7 days organoid culture
Procedure: The organoids were made using an immersion printing technique using a gelatin composition having a gelatin concentration of 10 mg/mL. To prepare the gelatin composition, gelatin was allowed to completely dissolve, and then the composition was cooled at 4° C. prior to use. The organoids were printed with a new bioprinter, BIO X™ available from CELLINK®, using a new type of printhead, a syringe pump printhead.
The resulting organoids were cultured for 7 days, and then subjected to various drug conditions in culture for 3 more days. Table 1 details the drug and concentration added to the standard culture media (high glucose DMEM supplemented with 10% fetal bovine serum, 1% L-glutamine, 1% penicillin/streptomycin). The organoids were then measured for viability using the CELLTITER-GLO® 3D ATP assay to measure ATP content via luminescence. The resulting signals, shown in FIG. 5, show a trend of organoid viability decreasing as drug concentration increased. Live/dead imaging corroborates the findings of the ATP assay.

COc1cccc2c1C(=O)c1c(O)c3c(c(O)c1C2=O)C[C@@](O)(C(=O)CO)C[C@@H]3O[C@H]1C[C@H](N)[C@H](O)[C@H](C)O1 [Doxorubicin]
AVG Signal (lum), ATP assay (1 nM drug in culture media): 5.13E+06 lum
AVG Signal (lum), ATP assay (100 nM drug in culture media): 2.62E+06 lum
AVG Signal (lum), ATP assay (10 μM drug in culture media): 1.12E+06 lum

Cc1ccc(NC(=O)c2ccc(CN3CCN(C)CC3)cc2)cc1Nc1nccc(-c2cccnc2)n1 [Imatinib]
AVG Signal (lum), ATP assay (5 μM drug in culture media): 9.16E+06 lum
AVG Signal (lum), ATP assay (50 μM drug in culture media): 6.56E+06 lum
AVG Signal (lum), ATP assay (500 μM drug in culture media): 1.88E+04 lum
